What was measured:
barnyardgrass [1] = assay: Test A pre-/postemergence herbicide test; format: in vivo, Echinochloa crus-galli
Procedure, shortened: (§1)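 Pre: seeded sandy loam, directed soil spray, compound in non-phytotoxic solvent + surfactant. Post: 1–2-leaf plants (2–10 cm), sprayed to runoff. Greenhouse ~10 d; visual injury vs untreated, 0–100 scale.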

[2] = system: small flower umbrella sedge; assay: Test B flooded paddy test; format: in vivo, Cyperus difformis; settings: 1000 g ai/ha, visual rating, scale 0 to 100 (0 no effect, 100 complete control), 13 to 15 days
Procedure, shortened: (§2)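 Paddy species grown to the 2-leaf stage under flooding; blackgrass sprayed postemergence at 2–18 cm (1- to 4-leaf stage). Plants kept in a greenhouse for 13 to 15 days, then visually rated against controls on 0 (no effect) to 100 (complete control).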

wheat = assay: Test B postemergence herbicide test; format: in vivo, Triticum aestivum; design: key to Wheat plant response rating: 0 = no effect, 100 = complete control; settings: postemergence, visual rating, scale 0 (no effect) to 100 (complete control)
Procedure, shortened: (§3)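 Postemergence plants were sprayed with formulated test chemicals at 2 to 18 cm height (1- to 4-leaf stage); paddy species were grown to the 2-leaf stage. After 13 to 15 days in a greenhouse, injury was rated visually against untreated controls on a 0–100 scale (0 = no effect, 100 = complete control).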

rice [3] = assay: Test B pre-/postemergence herbicide test; format: in vivo, Oryza sativa; settings: preemergence
Procedure, shortened: (§4)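 Formulation: non-phytotoxic solvent mix with surfactant. Timing: preemergence on seed and postemergence on 2–18 cm plants, applied concurrently. Readout after 13–15 d greenhouse: visual 0–100 control rating against controls.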

lambsquarters = assay: Test B pre-/postemergence herbicide test; format: in vivo, Chenopodium album; settings: for Lambsquarters plant response rating: postemergence, visual rating, scale 0 (no effect) to 100 (complete control)
Procedure, shortened: as §4

rice [4] = assay: Test B flooded paddy test; format: in vivo, Oryza sativa; settings: 1000 g ai/ha, visual rating, scale 0 to 100 (0 no effect, 100 complete control), 13 to 15 days
Procedure, shortened: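 Scale 0–100: zero equals no visible effect, 100 complete control, judged by eye relative to controls. Timing: 13 to 15 days in greenhouse post-treatment. Growth stage at spraying: two leaves (paddy) or one to four leaves, 2–18 cm (postemergence).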

velvetleaf [5] = assay: Test A pre-/postemergence herbicide test; format: in vivo, Abutilon theophrasti
Procedure, shortened: as §1

morningglory [6] = assay: Test A pre-/postemergence herbicide test; format: in vivo, Ipomoea spp.
Procedure, shortened: as §1

barnyardgrass [7] = assay: Test B pre-/postemergence herbicide test; format: in vivo, Echinochloa crus-galli; settings: for Barnyardgrass plant response rating: postemergence, visual rating, scale 0 (no effect) to 100 (complete control)
Procedure, shortened: (§5)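 Test chemicals in a non-phytotoxic solvent mixture with surfactant were applied preemergence to seeded species and postemergence to plants 2-18 cm tall (1- to 4-leaf stage); rice and barnyardgrass were also tested in a flooded paddy at the 2-leaf stage. Visual rating versus controls after 13-15 days in greenhouse, scale 0 (no effect) to 100 (complete control).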

wild oat = assay: Test B postemergence herbicide test; format: in vivo, Avena fatua; settings: postemergence, visual rating, scale 0 (no effect) to 100 (complete control)
Procedure, shortened: as §3

barnyardgrass [8] = assay: Test B flooded paddy test; format: in vivo, Echinochloa crus-galli; settings: 1000 g ai/ha, visual rating, scale 0 to 100 (0 no effect, 100 complete control), 13 to 15 days
Procedure, shortened: as §2

giant foxtail [9] = assay: Test A pre-/postemergence herbicide test; format: in vivo, Setaria faberi
Procedure, shortened: as §1

large crabgrass [10] = assay: Test B pre-/postemergence herbicide test; format: in vivo, Digitaria sanguinalis; settings: for Crabgrass, Large plant response rating: postemergence, visual rating, scale 0 (no effect) to 100 (complete control)
Procedure, shortened: as §4

large crabgrass [11] = assay: Test A pre-/postemergence herbicide test; format: in vivo, Digitaria sanguinalis
Procedure, shortened: as §1

giant foxtail [12] = assay: Test B pre-/postemergence herbicide test; format: in vivo, Setaria faberi; settings: for Foxtail, Giant plant response rating: postemergence, visual rating, scale 0 (no effect) to 100 (complete control)
Procedure, shortened: as §4

pigweed = assay: Test B pre-/postemergence herbicide test; format: in vivo, Amaranthus retroflexus; settings: for Pigweed plant response rating: postemergence, visual rating, scale 0 (no effect) to 100 (complete control)
Procedure, shortened: as §4

ducksalad = assay: Test B flooded paddy test; format: in vivo, Heteranthera limosa; settings: 1000 g ai/ha, visual rating, scale 0 to 100 (0 no effect, 100 complete control), 13 to 15 days
Procedure, shortened: as §2

blackgrass = assay: Test B postemergence herbicide test; format: in vivo, Alopecurus myosuroides; settings: postemergence, visual rating, scale 0 (no effect) to 100 (complete control)
Procedure, shortened: as §2

morningglory [13] = assay: Test B pre-/postemergence herbicide test; format: in vivo, Ipomoea coccinea; settings: for Morningglory plant response rating: postemergence, visual rating, scale 0 (no effect) to 100 (complete control)
Procedure, shortened: as §5

Surinam grass = assay: Test B pre-/postemergence herbicide test; format: in vivo, Urochloa decumbens; settings: for Surinam Grass plant response rating: postemergence, visual rating, scale 0 (no effect) to 100 (complete control)
Procedure, shortened: as §4

redroot pigweed = assay: Test A pre-/postemergence herbicide test; format: in vivo, Amaranthus retroflexus
Procedure, shortened: as §1

cocklebur = assay: Test B pre-/postemergence herbicide test; format: in vivo, Xanthium strumarium; settings: for Cocklebur plant response rating: postemergence, visual rating, scale 0 (no effect) to 100 (complete control)
Procedure, shortened: as §5

velvetleaf [14] = assay: Test B pre-/postemergence herbicide test; format: in vivo, Abutilon theophrasti; settings: for Velvetleaf plant response rating: postemergence, visual rating, scale 0 (no effect) to 100 (complete control)
Procedure, shortened: as §4

corn = assay: Test B pre-/postemergence herbicide test; format: in vivo, Zea mays; settings: for Corn plant response rating: postemergence, visual rating, scale 0 (no effect) to 100 (complete control)
Procedure, shortened: as §4

[15] = Postemergence, 500 g ai/ha, 0 to 100 scale, 0 no effect, 100 complete control
[16] = Postemergence, 2000 g ai/ha, 0 to 100 scale, 0 no effect, 100 complete control
[17] = Preemergence, 2000 g ai/ha, visual rating, 0 to 100 scale (0 no effect, 100 complete control)
[18] = preemergence, 500 g ai/ha, visual injury, 0 to 100 scale (0 no effect, 100 complete control)
[19] = 125 g ai/ha, 0 = no effect, 100 = complete control, preemergence
[20] = 500 g ai/ha, visual rating 0-100, 0 no effect, 100 complete control, preemergence

CCOc1cccc(NC(=O)c2cn(C(C)(C)C)nc2C)c1 [Compound 190]
Barnyardgrass plant response rating (barnyardgrass [1]; [15]): 0
Plant response rating, Barnyardgrass (barnyardgrass [1]; [16]): 0
Barnyardgrass plant response rating (barnyardgrass [1]; [17]): 40
Barnyardgrass plant response rating (barnyardgrass [1]; [18]): 20
Sedge, Umbrella plant response rating [2]: 60
Wheat plant response rating (wheat; 125 g ai/ha): 0
Wheat plant response rating (wheat; 500 g ai/ha): 0
Rice plant response rating (0 to 100 scale) (rice [3]; 125 g ai/ha, 0 = no effect, 100 = complete control): 0
Plant response rating, Rice (rice [3]; 500 g ai/ha, visual rating 0-100, 0 no effect, 100 complete control): 30
Lambsquarters plant response rating (0 to 100 scale) (lambsquarters; [19]): 0
Plant response rating, Lambsquarters (lambsquarters; [20]): 50
Lambsquarters plant response rating (lambsquarters; 125 g ai/ha): 30
Lambsquarters plant response rating (lambsquarters; 500 g ai/ha): 80
Rice plant response rating (rice [4]): 0
Velvetleaf plant response rating (velvetleaf [5]; [15]): 0
Plant response rating, Velvetleaf (velvetleaf [5]; [16]): 15
Velvetleaf plant response rating (velvetleaf [5]; [17]): 15
Velvetleaf plant response rating (velvetleaf [5]; [18]): 0
Morningglory plant response rating (morningglory [6]; [15]): 10
Plant response rating, Morningglory (morningglory [6]; [16]): 25
Morningglory plant response rating (morningglory [6]; [17]): 25
Morningglory plant response rating (morningglory [6]; [18]): 10
Barnyardgrass plant response rating (0 to 100 scale) (barnyardgrass [7]; [19]): 0
Plant response rating, Barnyardgrass (barnyardgrass [7]; [20]): 30
Barnyardgrass plant response rating (barnyardgrass [7]; 125 g ai/ha): 0
Barnyardgrass plant response rating (barnyardgrass [7]; 500 g ai/ha): 10
Oat, Wild plant response rating (wild oat; 125 g ai/ha): 10
Oat, Wild plant response rating (wild oat; 500 g ai/ha): 20
Barnyardgrass plant response rating (barnyardgrass [8]): 20
Foxtail, Giant plant response rating (giant foxtail [9]; [15]): 0
Plant response rating, Foxtail, Giant (giant foxtail [9]; [16]): 0
Foxtail, Giant plant response rating (giant foxtail [9]; [17]): 10
Foxtail, Giant plant response rating (giant foxtail [9]; [18]): 0
Crabgrass, Large plant response rating (0 to 100 scale) (large crabgrass [10]; [19]): 30
Plant response rating, Crabgrass, Large (large crabgrass [10]; [20]): 80
Crabgrass, Large plant response rating (large crabgrass [10]; 125 g ai/ha): 10
Crabgrass, Large plant response rating (large crabgrass [10]; 500 g ai/ha): 20
Crabgrass, Large plant response rating (large crabgrass [11]; [15]): 10
Plant response rating, Crabgrass, Large (large crabgrass [11]; [16]): 15
Crabgrass, Large plant response rating (large crabgrass [11]; [17]): 70
Crabgrass, Large plant response rating (large crabgrass [11]; [18]): 40
Foxtail, Giant plant response rating (0 to 100 scale) (giant foxtail [12]; [19]): 0
Plant response rating, Foxtail, Giant (giant foxtail [12]; [20]): 10
Foxtail, Giant plant response rating (giant foxtail [12]; 125 g ai/ha): 10
Foxtail, Giant plant response rating (giant foxtail [12]; 500 g ai/ha): 10
Pigweed plant response rating (0 to 100 scale) (pigweed; [19]): 30
Plant response rating, Pigweed (pigweed; [20]): 90
Pigweed plant response rating (pigweed; 125 g ai/ha): 30
Pigweed plant response rating (pigweed; 500 g ai/ha): 70
Ducksalad plant response rating (ducksalad): 60
Blackgrass plant response rating (blackgrass; 125 g ai/ha): 0
Blackgrass plant response rating (blackgrass; 500 g ai/ha): 0
Morningglory plant response rating (0 to 100 scale) (morningglory [13]; [19]): 0
Plant response rating, Morningglory (morningglory [13]; [20]): 0
Morningglory plant response rating (morningglory [13]; 125 g ai/ha): 50
Morningglory plant response rating (morningglory [13]; 500 g ai/ha): 90
Surinam Grass plant response rating (0 to 100 scale) (Surinam grass; [19]): 0
Plant response rating, Surinam Grass (Surinam grass; [20]): 10
Surinam Grass plant response rating (Surinam grass; 125 g ai/ha): 10
Surinam Grass plant response rating (Surinam grass; 500 g ai/ha): 20
Pigweed plant response rating (redroot pigweed; [15]): 10
Plant response rating, Pigweed (redroot pigweed; [16]): 20
Pigweed plant response rating (redroot pigweed; [17]): 85
Pigweed plant response rating (redroot pigweed; [18]): 25
Cocklebur plant response rating (0 to 100 scale) (cocklebur; [19]): 0
Plant response rating, Cocklebur (cocklebur; [20]): 0
Cocklebur plant response rating (cocklebur; 125 g ai/ha): 0
Cocklebur plant response rating (cocklebur; 500 g ai/ha): 10
Velvetleaf plant response rating (0 to 100 scale) (velvetleaf [14]; [19]): 0
Plant response rating, Velvetleaf (velvetleaf [14]; [20]): 10
Velvetleaf plant response rating (velvetleaf [14]; 125 g ai/ha): 20
Velvetleaf plant response rating (velvetleaf [14]; 500 g ai/ha): 40
Corn plant response rating (0 to 100 scale) (corn; [19]): 0
Plant response rating, Corn (corn; [20]): 0
Corn plant response rating (corn; 125 g ai/ha): 10
Corn plant response rating (corn; 500 g ai/ha): 10
